Calls of active or inactive are those of the source. The calls are words filed in the database; no cut-off is given here.
What was measured:
[1] = tested on: MCF7; assay: Inhibition of cell proliferation in human MCF7 cells assessed as increase in intracellular NO production at 25 uM measured after 2.5 hrs by nitric oxide assay; assay type: functional, cell-based
[2] = tested on: MCF7; assay: Antiproliferative activity against human MCF7 cells assessed as inhibition of cell growth measured after 48 hrs by MTT assay; assay type: functional, cell-based; details: MCF7, 48 h
[3] = tested on: MCF-10A; assay: Cytotoxicity against human MCF-10A cells assessed as reduction in cell viability measured after 48 hrs by MTT assay; assay type: cell-based
[4] = tested on: MDA-MB-231; assay: Antiproliferative activity against human MDA-MB-231 cells assessed as inhibition of cell growth measured after 48 hrs by MTT assay; assay type: functional, cell-based; details: MDA-MB-231, 48 h

## COc1cc2cc(C(=O)NCCc3ccc(F)cc3)c(=O)oc2cc1OCCCOc1no[n+]([O-])c1S(=O)(=O)c1ccccc1
[1]
  Activity: Active
[2]
  IC50: 440 nM
[3]
  IC50: 7950 nM
[4]
  IC50: 1110 nM

## COc1cc2cc(C(=O)NCCCc3ccccc3)c(=O)oc2cc1OCCCOc1no[n+]([O-])c1S(=O)(=O)c1ccccc1
[1]
  Activity: Active
[2]
  IC50: 870 nM
[3]
  IC50: 5330 nM
[4]
  IC50: 760 nM
